One test concerns the target KRAS-G12C/SOS1 (Homo sapiens (Human), UniProt Q07889). The test is described as follows: Detection of inhibitory effects of compounds on KRAS-G12C/SOS1 (KRASG12C/SOS binding kit, HTRF). The conditions noted are these: Em665/620, read-out: IC50, inhibitory activity on interaction of KRAS-G12C/SOS1. A digest of the protocol:
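HTRF binding of Tag2-KRAS-G12C to Tag1-SOS1 with compounds (10-point 3-fold dilution from 5,000 nM) for 15 min at room temperature, then anti-Tag1-Tb and anti-Tag2-XL665 for 120 min at 4° C. Em665/620 read; inhibition normalised to control wells, IC50 from variable-slope log(inhibitor) fit.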
On the technique in general: In TR-FRET formats the signal depends on donor and acceptor labels being close together.

Another test concerns p-ERK of PC-9 cells. The test is described as follows: p-ERK HTRF assay in PC-9 cells. The conditions noted are these: Homo sapiens, PC-9, 1 h, PC-9 lung cancer cells, 1 hour treatment, read-out: IC50, inhibitory activity on p-ERK of PC-9 cells. It is filed as cell-based. A digest of the protocol: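 PC-9 lung cancer cells plated overnight, then exposed 1 h at 37 °C to a 10-point compound series (10,000–[…] nM final, 0.1% DMSO). After 1 h lysis, phospho-ERK1/2 (Thr202/Tyr204) measured by HTRF at 665/615 nm. Percent inhibition calculated from max and min signals.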

SMILES strings stand for the structures.

Chain of KRAS-G12C/SOS1 (Q07889 whole entry, stated change not applied): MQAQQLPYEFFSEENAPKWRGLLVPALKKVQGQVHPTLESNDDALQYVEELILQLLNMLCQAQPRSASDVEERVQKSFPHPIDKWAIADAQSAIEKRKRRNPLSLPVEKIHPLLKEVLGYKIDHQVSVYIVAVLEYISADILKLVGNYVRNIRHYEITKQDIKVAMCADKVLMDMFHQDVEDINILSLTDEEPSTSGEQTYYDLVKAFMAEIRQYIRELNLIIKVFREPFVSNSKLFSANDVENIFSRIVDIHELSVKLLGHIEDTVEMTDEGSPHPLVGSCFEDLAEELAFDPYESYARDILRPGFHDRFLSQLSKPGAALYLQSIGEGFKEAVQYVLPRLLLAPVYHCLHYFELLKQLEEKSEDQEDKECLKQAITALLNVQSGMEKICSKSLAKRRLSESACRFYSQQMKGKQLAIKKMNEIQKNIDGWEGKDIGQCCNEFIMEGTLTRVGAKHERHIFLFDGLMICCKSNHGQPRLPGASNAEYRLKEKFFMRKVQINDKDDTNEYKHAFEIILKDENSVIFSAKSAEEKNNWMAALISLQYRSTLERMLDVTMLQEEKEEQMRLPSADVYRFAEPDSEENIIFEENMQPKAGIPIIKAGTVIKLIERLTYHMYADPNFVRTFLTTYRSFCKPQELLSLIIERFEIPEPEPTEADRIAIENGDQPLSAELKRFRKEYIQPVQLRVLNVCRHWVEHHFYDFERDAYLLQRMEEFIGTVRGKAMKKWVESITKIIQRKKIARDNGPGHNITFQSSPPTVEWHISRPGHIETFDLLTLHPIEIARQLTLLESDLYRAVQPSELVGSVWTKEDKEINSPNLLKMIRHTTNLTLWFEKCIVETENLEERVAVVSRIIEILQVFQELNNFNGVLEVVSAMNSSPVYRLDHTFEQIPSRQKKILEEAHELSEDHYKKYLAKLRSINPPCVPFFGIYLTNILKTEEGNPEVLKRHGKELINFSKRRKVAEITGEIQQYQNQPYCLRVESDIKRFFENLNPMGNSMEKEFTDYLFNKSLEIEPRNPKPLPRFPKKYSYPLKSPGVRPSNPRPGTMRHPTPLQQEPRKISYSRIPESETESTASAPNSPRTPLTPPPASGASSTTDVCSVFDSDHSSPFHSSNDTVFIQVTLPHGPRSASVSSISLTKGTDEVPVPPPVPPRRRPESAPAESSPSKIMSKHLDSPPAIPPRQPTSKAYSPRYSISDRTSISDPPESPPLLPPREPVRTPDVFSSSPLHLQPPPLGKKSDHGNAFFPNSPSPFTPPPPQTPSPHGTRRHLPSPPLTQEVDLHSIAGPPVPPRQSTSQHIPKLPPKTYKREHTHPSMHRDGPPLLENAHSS

Turning to `C[C@@H](Nc1ccnc2cnc(C3(O)CCN(C(=O)CO)CC3)cc12)c1cccc(C(F)F)c1F` [Compound B-113], the IC50 was not above 100 nM on KRAS-G12C/SOS1 and not above 300 nM in the test on p-ERK of PC-9 cells.

Consider `CC(=O)N1CCN(c2cc(F)c3nccc(N[C@H](C)c4cccc(C(F)F)c4F)c3c2)CC1` [Compound A-100], for which the IC50 on KRAS-G12C/SOS1 was not above 100 nM; in the test with p-ERK of PC-9 cells, not above 300 nM.

As for `CC(=O)N1C2CCC1CN(c1cc3c(N[C@H](C)c4cccc(C#N)c4F)ccnc3cn1)C2` [Compound B-165], the IC50 is not above 100 nM at KRAS-G12C/SOS1 and 300 to 1000 nM with p-ERK of PC-9 cells.

With `C[C@@H](Nc1ccnc2cnc(C3(O)CCC(N4CCNCC4)CC3)cc12)c1cccc(C(F)F)c1F` (single isomer, unassigned) [Compound B-97-P2], the IC50 is not above 100 nM on KRAS-G12C/SOS1 and 300 to 1000 nM in the test with p-ERK of PC-9 cells.

`C[C@@H](Nc1ccnc2cnc(C3(O)CCOCC3)cc12)c1cccc(C(F)F)c1F` [Compound B-103]: the IC50 at KRAS-G12C/SOS1 was not above 100 nM; with p-ERK of PC-9 cells it was 300 to 1000 nM.

Take `CC(=O)N1CCN(c2cc3c(N[C@H](C)c4cccc(C(F)F)c4F)ccnc3c(-c3cnn(C)c3)n2)CC1` [Compound B-169]: the IC50 was not above 100 nM at KRAS-G12C/SOS1 and not above 300 nM with p-ERK of PC-9 cells.

With `COc1c(C2=CCN(C(C)=O)CC2)cc2c(N[C@H](C)c3cccc(C(F)F)c3F)ccnc2c1F` [Compound A-101], the IC50 at KRAS-G12C/SOS1 was not above 100 nM; in the test with p-ERK of PC-9 cells, 300 to 1000 nM.

`C[C@@H](Nc1ccnc2cnc(C3(O)CCN(C(=O)c4ccccn4)CC3)cc12)c1cccc(C(F)F)c1F` [Compound B-129]: the IC50 at KRAS-G12C/SOS1 was not above 100 nM; with p-ERK of PC-9 cells it was 300 to 1000 nM.

Consider `C[C@@H](Nc1ccnc2cnc(C3(O)CCN(C(=O)C4CC4)CC3)cc12)c1cccc(C(F)F)c1F` [Compound B-128], for which the IC50 is not above 100 nM at KRAS-G12C/SOS1 and not above 300 nM in the test with p-ERK of PC-9 cells.

With `C[C@@H](Nc1ccnc2cnc(C3(O)CCN(C(=O)Cc4cccnc4)CC3)cc12)c1cccc(C(F)F)c1F` [Compound B-138], the IC50 was not above 100 nM on KRAS-G12C/SOS1 and not above 300 nM in the test on p-ERK of PC-9 cells.

Take `C[C@@H](Nc1ccnc2cnc(C3(O)CCN(C(=O)N4CC[C@H](O)C4)CC3)cc12)c1cccc(C(F)F)c1F` [Compound B-161]: the IC50 on KRAS-G12C/SOS1 was not above 100 nM; with p-ERK of PC-9 cells, 300 to 1000 nM.

As for `C[C@@H](Nc1ccnc2cnc(N3CC[C@H](N)C3)cc12)c1cccc(C(F)F)c1F` [Compound B-33], the IC50 was not above 100 nM on KRAS-G12C/SOS1 and 300 to 1000 nM with p-ERK of PC-9 cells.

`C[C@@H](Nc1ccnc2cnc(C3(O)CCN(C(=O)C(C)(C)O)CC3)cc12)c1cccc(C(F)F)c1F` [Compound B-121]: the results for the IC50 on KRAS-G12C/SOS1 and with p-ERK of PC-9 cells were not above 100 nM and not above 300 nM, respectively.

Consider `C[C@@H](Nc1ccnc2cnc(C3(O)CCN(C(=O)[C@@H]4CNCCO4)CC3)cc12)c1cccc(C(F)F)c1F` [Compound B-137], for which the IC50 at KRAS-G12C/SOS1 was not above 100 nM; with p-ERK of PC-9 cells, more than 1000 nM.

Turning to `CC(=O)N1CCC(O)(c2cc3c(N[C@H](C)c4cccc(C(F)F)c4F)ccnc3c(-c3cnn(C)c3)n2)CC1` [Compound B-170], the values for the IC50 at KRAS-G12C/SOS1 and in the test on p-ERK of PC-9 cells were not above 100 nM and not above 300 nM, respectively.

Turning to `C[C@@H](Nc1ccnc2cnc(C3(O)CCN(C(=O)CN4CC[C@H](O)C4)CC3)cc12)c1cccc(C(F)F)c1F` [Compound B-151], the IC50 on KRAS-G12C/SOS1 was not above 100 nM; with p-ERK of PC-9 cells it was more than 1000 nM.

With `C[C@@H](Nc1ccnc2cnc(C3(O)CCN(C(=O)[C@H]4C[C@@H](O)CN4)CC3)cc12)c1cccc(C(F)F)c1F` [Compound B-145], the values for the IC50 on KRAS-G12C/SOS1 and in the test on p-ERK of PC-9 cells were not above 100 nM and more than 1000 nM, respectively.

As for `Cc1nc(C2(O)CCN(C(=O)CO)CC2)cc2c(N[C@H](C)c3cccc(C(F)F)c3F)ccnc12` [Compound B-175], the IC50 is not above 100 nM on KRAS-G12C/SOS1 and not above 300 nM in the test with p-ERK of PC-9 cells.

With `Cc1nnc(N2CCC(O)(c3cc4c(N[C@H](C)c5cccc(C(F)F)c5F)ccnc4cn3)CC2)o1` [Compound B-153], the IC50 on KRAS-G12C/SOS1 was not above 100 nM; with p-ERK of PC-9 cells, 300 to 1000 nM.

Regarding `CC(=O)NC1CCN(c2cc3c(N[C@H](C)c4cccc(C(F)F)c4F)ccnc3cn2)CC1` [Compound B-37], the IC50 was not above 100 nM at KRAS-G12C/SOS1 and more than 1000 nM in the test on p-ERK of PC-9 cells.

On to `CC(=O)N1CCN(c2cc3c(N[C@H](C)c4cccc(C(F)F)c4F)ccnc3cn2)C(=O)C1` [Compound B-53], for which the IC50 at KRAS-G12C/SOS1 is not above 100 nM; in the test with p-ERK of PC-9 cells, 300 to 1000 nM.

On to `CC(=O)N1CC=C(c2cc3c(N[C@H](C)c4cccc(C(F)F)c4F)ccnc3cn2)C1` [Compound B-109], for which the IC50 was not above 100 nM at KRAS-G12C/SOS1 and not above 300 nM in the test on p-ERK of PC-9 cells.

Consider `C[C@@H](Nc1ccnc2cnc(N3C[C@H](O)C[C@H]3CO)cc12)c1cccc(C(F)F)c1F` [Compound B-78], for which the figures for the IC50 at KRAS-G12C/SOS1 and with p-ERK of PC-9 cells were not above 100 nM and not above 300 nM, respectively.

Turning to `C[C@@H](Nc1ccnc2cnc(N3CCCS3(=O)=O)cc12)c1cccc(C(F)F)c1F` [Compound B-52], the IC50 on KRAS-G12C/SOS1 is not above 100 nM; in the test with p-ERK of PC-9 cells, not above 300 nM.

As for `Cc1cc(N[C@H](C)c2cccc(C(F)F)c2F)c2cc(C3(O)CCC(O)CC3)ncc2n1` (single isomer, unassigned) [Compound B-88-P2], the results for the IC50 at KRAS-G12C/SOS1 and with p-ERK of PC-9 cells were not above 100 nM and 300 to 1000 nM, respectively.

For the molecule `C[C@@H](Nc1ccnc2cnc(C3(O)CCN(C(=O)c4cccnc4)CC3)cc12)c1cccc(C(F)F)c1F` [Compound B-130], the values for the IC50 at KRAS-G12C/SOS1 and in the test on p-ERK of PC-9 cells were not above 100 nM and 300 to 1000 nM, respectively.

`CC(=O)N1CCN(c2cc3c(N[C@H](C)c4cccc(C(F)(F)F)c4)ccnc3cn2)CC1` [Compound B-49]: the IC50 on KRAS-G12C/SOS1 was not above 100 nM; in the test on p-ERK of PC-9 cells, not above 300 nM.

In the case of `CC(=O)N1CCN(c2cc3c(N[C@H](C)c4cccc(C(F)F)c4F)ccnc3cn2)[C@H](CO)C1` [Compound B-47], the IC50 is not above 100 nM on KRAS-G12C/SOS1 and not above 300 nM in the test with p-ERK of PC-9 cells.

With `C[C@@H](Nc1ccnc2cnc(C3(O)CCC(N(C)C)CC3)cc12)c1cccc(C(F)F)c1F` (single isomer, unassigned) [Compound B-94-P2], the IC50 on KRAS-G12C/SOS1 is not above 100 nM; in the test with p-ERK of PC-9 cells, not above 300 nM.

As for `C[C@@H](Nc1ccnc2cnc(C3(O)CCN(C(=O)[C@H]4CCOC4)CC3)cc12)c1cccc(C(F)F)c1F` [Compound B-134], the IC50 on KRAS-G12C/SOS1 is not above 100 nM; in the test on p-ERK of PC-9 cells, not above 300 nM.

Take `CC(=O)N[C@@H]1CCN(c2cc3c(N[C@H](C)c4cccc(C(F)F)c4F)ccnc3cn2)C1` [Compound B-32]: the IC50 is not above 100 nM on KRAS-G12C/SOS1 and not above 300 nM in the test on p-ERK of PC-9 cells.

Take `C[C@@H](Nc1ccnc2cnc(N3CCC(C(=O)O)CC3)cc12)c1cccc(C(F)F)c1F` [Compound B-35]: the IC50 on KRAS-G12C/SOS1 is not above 100 nM; with p-ERK of PC-9 cells, more than 1000 nM.

With `C[C@@H](Nc1ccnc2cnc(N3CCS(=O)(=O)CC3)cc12)c1cccc(C(F)F)c1F` [Compound B-38], the IC50 is not above 100 nM at KRAS-G12C/SOS1 and not above 300 nM in the test with p-ERK of PC-9 cells.

`C[C@@H](Nc1ccnc2cnc(C3(O)CCN(C(=O)C4CCOCC4)CC3)cc12)c1cccc(C(F)F)c1F` [Compound B-135]: the results for the IC50 at KRAS-G12C/SOS1 and in the test with p-ERK of PC-9 cells were not above 100 nM and 300 to 1000 nM, respectively.

Consider `C[C@@H](Nc1ccnc2cnc(C3(O)CCN(C(=O)CO)CC3)cc12)c1cccc(C(F)(F)F)c1F` [Compound B-118], for which the figures for the IC50 at KRAS-G12C/SOS1 and in the test on p-ERK of PC-9 cells were not above 100 nM and not above 300 nM, respectively.

Consider `CC(=O)N1CCC(N)(c2cc3c(N[C@H](C)c4cccc(C(F)F)c4F)ccnc3cn2)CC1` [Compound B-51], for which the IC50 at KRAS-G12C/SOS1 is not above 100 nM; with p-ERK of PC-9 cells it was not above 300 nM.

`COC1(c2cc3c(N[C@H](C)c4cccc(C(F)F)c4F)ccnc3cn2)CCC(O)CC1` (some centres unmarked) [Compound B-82]: the IC50 was not above 100 nM on KRAS-G12C/SOS1 and not above 300 nM in the test on p-ERK of PC-9 cells.

Regarding `C[C@@H](Nc1ccnc2cnc(N3CCOCC3)cc12)c1cccc(C(F)F)c1F` [Compound B-21], the IC50 at KRAS-G12C/SOS1 was not above 100 nM; in the test with p-ERK of PC-9 cells, 300 to 1000 nM.

Turning to `C[C@@H](Nc1ccnc2cnc(C3(O)CCN(Cc4ccccn4)CC3)cc12)c1cccc(C(F)F)c1F` [Compound B-159], the values for the IC50 at KRAS-G12C/SOS1 and in the test on p-ERK of PC-9 cells were not above 100 nM and 300 to 1000 nM, respectively.

`C[C@@H](Nc1ccnc2cnc(N3CCCCS3(=O)=O)cc12)c1cccc(C(F)F)c1F` [Compound B-60]: the IC50 was not above 100 nM at KRAS-G12C/SOS1 and not above 300 nM in the test on p-ERK of PC-9 cells.

Source of the values: patent publication US20250042857A1, “SOS1 Inhibitor With Pyrido-Fused Six-Membered Ring Structure” (HAIHE BIOPHARMA CO., LTD., priority 2021, published 2025).
